7 compounds from patent US10047118B2, “C17-aryl substituted betulinic acid analogs” (priority 2014, dated 2018) can be followed below.

What is called EC50 is the concentration that produces a half-maximal response.

This assay concerns recombinant NL4-3 virus (Renilla luciferase in nef, Gag P373S; NLRluc) in MT-2 cells. Kind of assay: HIV cell culture assay (luciferase reporter virus in MT-2 cells). In kind it is cell-based. Conditions: NL43, read-out: WT EC50. As for the experimental part:
Step 2: To a solution of methyl 4-((1R,3aS,5aR,5bR,7aR,11aS,11bR,13aR,13bR)-5a,5b,8,8,11a-pentamethyl-3a-(1-methyl-1H-1,2,4-triazol-5-yl)-1-(prop-1-en-2-yl)-2,3,3a,4,5,5a,5b,6,7,7a,8,11,11a,11b,12,13,13a,13b-octadecahydro-1H-cyclopenta[a]chrysen-9-yl)benzoate (12.7 mg, 0.021 mmol) in THF (1 mL) and MeOH (0.25 mL) was added a solution of 1N lithium hydroxide (0.073 mL, 0.073 mmol). The reaction was stirred at 75° C. After 1 h, the reaction was cooled to rt and purified by reverse phase prep-HPLC using HPLC method 4 and dried in vacuo to give 4-((1R,3aS,5aR,5bR,7aR,11aS,11bR,13aR,13bR)-5a,5b,8,8,11a-pentamethyl-3a-(1-methyl-1H-1,2,4-triazol-5-yl)-1-(prop-1-en-2-yl)-2,3,3a,4,5,5a,5b,6,7,7a,8,11,11a,11b,12,13,13a,13b-octadecahydro-1H-cyclopenta[a]chrysen-9-yl)benzoic acid (9.1 mg, 0.015 mmol, 70.4% yield) as a white solid. LC/MS: m/e 596.3 (M+H)^+, 5.33 min (method 3). ^1H NMR (400 MHz, 1:1 CDCl3:METHANOL-d4) δ 7.89 (d, J=8.3 Hz, 2H), 7.78 (s, 1H), 7.17 (d, J=8.6 Hz, 2H), 5.30-5.22 (m, 1H), 4.77 (d, J=1.7 Hz, 1H), 3.93 (s, 3H), 3.23-3.05 (m, 2H), 2.33 (d, J=13.7 Hz, 1H), 2.11 (dd, J=17.2, 6.2 Hz, 1H), 2.04-1.96 (m, 1H), 1.93-1.80 (m, 2H), 1.72 (s, 3H), 1.68 (d, J=16.4 Hz, 1H), 1.63-1.58 (m, 1H), 1.55-1.30 (m, 10H), 1.28-1.19 (m, 2H), 1.18-1.08 (m, 2H), 1.04 (s, 3H), 0.97 (s, 3H), 0.90 (s, 6H), 0.82 (s, 3H). HIV cell culture assay—MT-2 cells and 293T cells were obtained from the NIH AIDS Research and Reference Reagent Program. MT-2 cells were propagated in RPMI 1640 media supplemented with 10% heat inactivated fetal bovine serum, […]. The 293T cells were propagated in DMEM media supplemented with 10% heat inactivated fetal bovine serum (FBS), 100 units/mL penicillin G and 100 μg/mL streptomycin. The proviral DNA clone of NL4-3 was obtained from the NIH AIDS Research and Reference Reagent Program. A recombinant NL4-3 virus, in which a section of the nef gene from NL4-3 was replaced with the Renilla luciferase gene, was used as a reference virus. In addition, residue Gag P373 was converted to P373S. Briefly, the recombinant virus was prepared by transfection of the altered proviral clone of NL4-3. Transfections were performed in 293T cells using LipofectAMINE PLUS from Invitrogen (Carlsbad, Calif.), according to manufacturer's instruction. The virus was titered in MT-2 cells using luciferase enzyme activity as a marker. Luciferase was quantitated using the Dual Luciferase kit from Promega (Madison, Wis.), with modifications to the manufacturer's protocol. The diluted Passive Lysis solution was pre-mixed with the re-suspended Luciferase Assay Reagent and the re-suspended Stop & Glo Substrate (2:1:1 ratio). Fifty (50) μL of the mixture was added to each aspirated well on assay plates and luciferase activity was measured immediately on a Wallac TriLux (Perkin-Elmer). Antiviral activities of inhibitors toward the recombinant virus were quantified by measuring luciferase activity in cells infected for 4-5 days with NLRluc recombinants in the presence serial dilutions of the inhibitor. Biological Data Key for EC50
As to `C=C(C)[C@@H]1CC[C@]2(C#Cc3ccccc3C(=O)O)CC[C@]3(C)[C@H](CC[C@@H]4[C@@]5(C)CC=C(c6ccc(C(=O)O)cc6)C(C)(C)[C@@H]5CC[C@]43C)[C@@H]12` [Example 1, 2-(((1R,3aS,5aR,5bR,7aR,11aS,11bR,13aR,13bR)-9-(4-carboxyphenyl)-5a,5b,8,8,11a-pentamethyl-1-(prop-1-en-2-yl)-2,3,3a,4,5,5a,5b,6,7,7a,8,11,11a,11b,12,13,13a,13b-octadecahydro-1H-cyclopenta[a]chrysen-3a-yl)ethynyl)benzoic acid], the EC50 worked out at 80 nM.

`C=C(C)[C@@H]1CC[C@]2(C#Cc3ccsc3-c3nnn[nH]3)CC[C@]3(C)[C@H](CC[C@@H]4[C@@]5(C)CC=C(c6ccc(C(=O)O)cc6)C(C)(C)[C@@H]5CC[C@]43C)[C@@H]12` [Example 2, 4-((1R,3aS,5aR,5bR,7aR,11aS,11bR,13 aR,13bR)-3a-((2-(1H-tetrazol-5-yl)thiophen-3-yl)ethynyl)-5a,5b,8,8,11a-pentamethyl-1-(prop-1-en-2-yl)-2,3,3a,4,5,5a,5b,6,7,7a,8,11,11a,11b,12,13,13a,13b-octadecahydro-1H-cyclopenta[a]chrysen-9-yl)benzoic acid]: the EC50 was above 100 nM.

Consider `C=C(C)[C@@H]1CC[C@]2(c3nnco3)CC[C@]3(C)[C@H](CC[C@@H]4[C@@]5(C)CC=C(c6ccc(C(=O)O)cc6)C(C)(C)[C@@H]5CC[C@]43C)[C@@H]12` [Example 3, 4-((1R,3aS,5aR,5bR,7aR,11aS,11bR,13aR,13bR)-5a,5b,8,8,11a-pentamethyl-3a-(1,3,4-oxadiazol-2-yl)-1-(prop-1-en-2-yl)-2,3,3a,4,5,5a,5b,6,7,7a,8,11,11a,11b,12,13,13a,13b-octadecahydro-1H-cyclopenta[a]chrysen-9-yl)benzoic acid], for which the EC50 is below 100 nM.

Regarding `C=C(C)[C@@H]1CC[C@]2(c3nnc(CN(C)C)o3)CC[C@]3(C)[C@H](CC[C@@H]4[C@@]5(C)CC=C(c6ccc(C(=O)O)cc6)C(C)(C)[C@@H]5CC[C@]43C)[C@@H]12` [Example 4, 4-((1R,3aS,5aR,5bR,7aR,11aS,11bR,13 aR,13bR)-3a-(5-((dimethylamino)methyl)-1,3,4-oxadiazol-2-yl)-5a,5b,8,8,11a-pentamethyl-1-(prop-1-en-2-yl)-2,3,3a,4,5,5a,5b,6,7,7a,8,11,11a,11b,12,13,13a,13b-octadecahydro-1H-cyclopenta[a]chrysen-9-yl)benzoic acid], the EC50 was below 100 nM.

As to `C=C(C)[C@@H]1CC[C@]2(c3nc[nH]n3)CC[C@]3(C)[C@H](CC[C@@H]4[C@@]5(C)CC=C(c6ccc(C(=O)O)cc6)C(C)(C)[C@@H]5CC[C@]43C)[C@@H]12` [Example 5, 4-((1R,3aS,5aR,5bR,7aR,11aS,11bR,13aR,13bR)-5a,5b,8,8,11a-pentamethyl-1-(prop-1-en-2-yl)-3a-(1H-1,2,4-triazol-3-yl)-2,3,3a,4,5,5a,5b,6,7,7a,8,11,11a,11b,12,13,13a,13b-octadecahydro-1H-cyclopenta[a]chrysen-9-yl)benzoic acid], the EC50 was below 100 nM.

As to `C=C(C)[C@@H]1CC[C@]2(c3ncn(CCN4CCS(=O)(=O)CC4)n3)CC[C@]3(C)[C@H](CC[C@@H]4[C@@]5(C)CC=C(c6ccc(C(=O)O)cc6)C(C)(C)[C@@H]5CC[C@]43C)[C@@H]12` [Example 6, 4-((1R,3aS,5aR,5bR,7aR,11aS,11bR,13aR,13bR)-3a-(1-(2-(1,1-dioxidothiomorpholino)ethyl)-1H-1,2,4-triazol-3-yl)-5a,5b,8,8,11a-pentamethyl-1-(prop-1-en-2-yl)-2,3,3a,4,5,5a,5b,6,7,7a,8,11,11a,11b,12,13,13a,13b-octadecahydro-1H-cyclopenta[a]chrysen-9-yl)benzoic acid], the EC50 was below 100 nM.

With `C=C(C)[C@@H]1CC[C@]2(c3ncnn3C)CC[C@]3(C)[C@H](CC[C@@H]4[C@@]5(C)CC=C(c6ccc(C(=O)O)cc6)C(C)(C)[C@@H]5CC[C@]43C)[C@@H]12` [Example 7, 4-((1R,3aS,5aR,5bR,7aR,11aS,11bR,13aR,13bR)-5a,5b,8,8,11a-pentamethyl-3a-(1-methyl-1H-1,2,4-triazol-5-yl)-1-(prop-1-en-2-yl)-2,3,3a,4,5,5a,5b,6,7,7a,8,11,11a,11b,12,13,13a,13b-octadecahydro-1H-cyclopenta[a]chrysen-9-yl)benzoic acid], the EC50 was below 100 nM.
